Experimental data from patent publication US6677333B1, “2H-phthalazin-1-one derivatives and drug containing its derivatives as active ingredient” (Ono Pharmaceutical Co., Ltd., priority 1999, dated 2004).
Where a name gives a salt, the structure may show the parent alone.

Target: T1, PARP (Homo sapiens, UniProt P09874)
T1 construct: purchased TREVIGEN
Experiment: Enzyme assay in vitro (PARP inhibitory activity)
Format: biochemical
Details: PARP (TREVIGEN), activated DNA, 10 minutes reaction, 100% of control = distilled water; example 5 tested as trifluoro acetate
Experimental: The below procedure was carried out with 96 well plate. The reaction mixture contained 50 mM Tris/HCl (pH 8.0, WAKO), 10 mM MgCl2, 5 mM dithiothreitol (sigma), and 0.5 mg/mL activated DNA in 80 μL. The 10 μL of test compound was added to the reaction mixture and the reaction was started by addition of 10 μL of […] PARP (TREVIGEN). The reaction was terminated at 10 minutes by addition of 100 μL of 20% trichloroacetic acid. The reaction product was collected on a glass fiber filter (GF/C, PACKARD). The radioactivity was measured by topcount (PACKARD). Inhibitory activity of the compound was represented by 50% inhibitory concentration (IC50) calculated 100% of control (distilled water).

T1 sequence (P09874 whole entry): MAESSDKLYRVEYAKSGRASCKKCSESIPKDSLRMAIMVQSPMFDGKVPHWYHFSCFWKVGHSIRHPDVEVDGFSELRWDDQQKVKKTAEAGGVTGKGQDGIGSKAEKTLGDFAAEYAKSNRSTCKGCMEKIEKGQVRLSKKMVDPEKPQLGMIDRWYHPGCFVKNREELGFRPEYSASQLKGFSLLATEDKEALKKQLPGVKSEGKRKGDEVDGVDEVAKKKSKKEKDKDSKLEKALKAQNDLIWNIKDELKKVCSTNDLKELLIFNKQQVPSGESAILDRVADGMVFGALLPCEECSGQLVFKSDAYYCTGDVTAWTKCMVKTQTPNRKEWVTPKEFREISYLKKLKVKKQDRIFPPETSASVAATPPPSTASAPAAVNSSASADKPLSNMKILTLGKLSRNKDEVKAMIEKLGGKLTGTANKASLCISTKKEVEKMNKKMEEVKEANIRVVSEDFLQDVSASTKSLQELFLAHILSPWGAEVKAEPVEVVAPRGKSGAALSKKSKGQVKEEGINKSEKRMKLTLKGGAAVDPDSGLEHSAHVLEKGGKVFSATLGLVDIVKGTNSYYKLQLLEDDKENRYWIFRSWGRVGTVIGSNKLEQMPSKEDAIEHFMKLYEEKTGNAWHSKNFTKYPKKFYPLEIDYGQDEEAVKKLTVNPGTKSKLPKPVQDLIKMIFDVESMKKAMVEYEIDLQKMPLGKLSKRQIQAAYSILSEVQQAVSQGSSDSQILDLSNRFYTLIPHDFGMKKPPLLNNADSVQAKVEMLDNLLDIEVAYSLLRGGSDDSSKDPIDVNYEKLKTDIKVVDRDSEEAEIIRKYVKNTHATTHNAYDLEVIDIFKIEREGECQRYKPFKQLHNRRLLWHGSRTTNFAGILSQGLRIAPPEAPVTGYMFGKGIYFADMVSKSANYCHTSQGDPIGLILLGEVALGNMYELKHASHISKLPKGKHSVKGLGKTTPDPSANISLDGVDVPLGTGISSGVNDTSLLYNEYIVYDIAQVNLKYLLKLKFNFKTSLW

`NCCSCC(=O)Nc1cccc(-c2n[nH]c(=O)c3ccccc23)c1` [5(10), 4-(3-(2-(2-Aminoethylthio)acetylamino)phenyl)-2H-phthalazin-1-one Hydrochloride] gave an IC50 of 50 nM.
`NCCCCC(=O)Nc1cccc(-c2n[nH]c(=O)c3ccccc23)c1` [compound 5] showed an IC50 of 42 nM.
